Laboratory results reported in the supplement of paper PMC6045584.
± gives the standard deviation of the averaged measurements.

Columns and labels:
[1] = compound: C[C@]1(O)C[C@@H](c2nc(-c3ccc4ccc(-c5ccccc5)nc4c3)c3c(N)nccn32)C1 [OSI-906]; test: area under dose-response curve of surviving fraction (unscaled, Aref=0) (surviving fraction x log10(nM)); higher = more resistant; conditions: exposure time: 5 days; dose range 0.5-1000 nM
Method in brief: (§1)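 Each tumour cell line was screened three times in 384-well plates, receiving eight inhibitor concentrations from 0.5 to 1000 nM for five days. CellTiter-Glo luminescence gave viability, normalised to DMSO-only wells. Using the drc R package, surviving fractions were fitted with 3-parameter logistic dose-response curves, and the unscaled activity area over log10 dose (Aref = 0) was taken as the area under the curve.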

[2] = compound: COc1cc2ncnc(Nc3ccc(F)c(Cl)c3)c2cc1OCCCN1CCOCC1 [GEFITINIB]; test: as above; conditions: exposure time: 5 days; dose range 0.5-1000 nM
Method in brief: as §1

[3] = compound: CC[C@@]1(O)C(=O)OCc2c1cc1n(c2=O)Cc2cc3ccccc3nc2-1 [CAMPTOTHECIN]; test: as above; conditions: exposure time: 5 days; dose range 0.5-1000 nM
Method in brief: as §1

[4] = compound: CC(=O)O[C@H]1C(=O)[C@@]2(C)[C@H]([C@H](OC(=O)c3ccccc3)[C@]3(O)C[C@H](OC(=O)[C@H](O)[C@@H](NC(=O)c4ccccc4)c4ccccc4)C(C)=C1C3(C)C)[C@]1(OC(C)=O)CO[C@@H]1C[C@@H]2O [PACLITAXEL]; test: as above; conditions: exposure time: 5 days; dose range 0.5-1000 nM
Method in brief: as §1

[5] = compound: O=C(O)C1(C(=O)O)CCC1.[NH2-].[NH2-].[Pt+2] [CARBOPLATIN]; test: as above; conditions: exposure time: 5 days; dose range 0.5-1000 nM
Method in brief: as §1

[6] = compound: T1, Cc1ccc(-c2cc(C(F)(F)F)nn2-c2ccc(S(N)(=O)=O)cc2)cc1 [CELECOXIB]; test: as above; conditions: exposure time: 5 days; dose range 0.5-1000 nM
Method in brief: as §1

[7] = compound: CC(=O)c1c(C)c2cnc(Nc3ccc(N4CCNCC4)cn3)nc2n(C2CCCC2)c1=O; test: as above; conditions: exposure time: 5 days; dose range 0.5-1000 nM
Method in brief: as §1

[8] = compound: COCC[n+]1c2c(n(Cc3cnccn3)c1C)C(=O)c1ccccc1C2=O [YM155]; test: as above; conditions: exposure time: 5 days; dose range 0.5-1000 nM
Method in brief: as §1

[9] = compound: CC(=O)NCC(=O)N1[C@@H]2CC[C@H]1c1ccc(Nc3ncc(C(F)(F)F)c(NC4CCC4)n3)cc12; test: as above; conditions: exposure time: 5 days; dose range 0.5-1000 nM
Method in brief: as §1

[10] = compound: T1, CELECOXIB; test: surviving fraction relative to DMSO-only wells; higher = less growth inhibition; conditions: exposure time: 5 days
Method in brief: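 Surviving fraction is CellTiter-Glo luminescence divided by the median of wells given DMSO only. For this, log-phase tumour cell lines went into 384-well plates at 250–500 cells per well and, 24 hours later, into five days of continuous inhibitor exposure at 0.5, 1, 5, 10, 50, 100, 500 and 1000 nM. Lines were screened three times and retained only if replicate Pearson r >0.7 and median Z' >0.3.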

For KPD BONE, which “area under dose-response curve” value [1] is on record?
Its value is 2.38.

And the “area under dose-response curve” value [2]?
Its value is 3.15.

And the “area under dose-response curve” value [3]?
The value was 1.2.

And the “area under dose-response curve” value [4]?
The value was 1.47.

What about the “area under dose-response curve” value [5] of the same test system?
The value was 3.52.

What about the “area under dose-response curve” value [6] of the same test system?
The value was 3.48.

And the “area under dose-response curve” value [7]?
The value was 3.15.

What about the “area under dose-response curve” value [8] of the same test system?
Its value is 1.1.

And the “area under dose-response curve” value [9]?
Its value is 2.67.

And the surviving fraction ([10]; 0.5 nM)?
The surviving fraction was 1.04 ± 0.1.

And the surviving fraction ([10]; 1 nM)?
Its surviving fraction is 1.01 ± 0.054.

And the surviving fraction ([10]; 5 nM)?
Its surviving fraction is 1.11 ± 0.065.

And the surviving fraction ([10]; 10 nM)?
Its surviving fraction is 1.07 ± 0.029.

And the surviving fraction ([10]; 50 nM)?
The surviving fraction was 1.05 ± 0.04.

What about the surviving fraction ([10]; 100 nM) of the same test system?
The surviving fraction was 1.07 ± 0.12.

And the surviving fraction ([10]; 500 nM)?
The surviving fraction was 1.05 ± 0.012.

What about the surviving fraction ([10]; 1000 nM) of the same test system?
The surviving fraction was 0.934 ± 0.043.

Which “area under dose-response curve” value [1] does the source give for HSSYII SYNOVIAL here?
The value was 2.6.

What about the “area under dose-response curve” value [2] of the same test system?
Its value is 3.35.

What about the “area under dose-response curve” value [3] of the same test system?
The value was 0.531.

And the “area under dose-response curve” value [4]?
Its value is 0.524.

What about the “area under dose-response curve” value [5] of the same test system?
Its value is 3.19.

And the “area under dose-response curve” value [6]?
Its value is 3.39.

What about the “area under dose-response curve” value [7] of the same test system?
Its value is 3.04.

And the “area under dose-response curve” value [8]?
Its value is 0.716.

And the “area under dose-response curve” value [9]?
The value was 1.97.

And the surviving fraction ([10]; 0.5 nM)?
The surviving fraction was 1.04 ± 0.019.

And the surviving fraction ([10]; 1 nM)?
The surviving fraction was 1.01 ± 0.014.

What about the surviving fraction ([10]; 5 nM) of the same test system?
Its surviving fraction is 0.979 ± 0.07.

And the surviving fraction ([10]; 10 nM)?
Its surviving fraction is 1.08 ± 0.028.

And the surviving fraction ([10]; 50 nM)?
The surviving fraction was 1.02 ± 0.046.

What about the surviving fraction ([10]; 100 nM) of the same test system?
The surviving fraction was 1.039 ± 0.0068.

What about the surviving fraction ([10]; 500 nM) of the same test system?
Its surviving fraction is 1.01 ± 0.066.

And the surviving fraction ([10]; 1000 nM)?
Its surviving fraction is 1.04 ± 0.036.

Which results are given for MDAMB134 BREAST?
area under dose-response curve [1]: 2.32; area under dose-response curve [2]: 3.62; area under dose-response curve [3]: 2.11; area under dose-response curve [4]: 2.33; area under dose-response curve [5]: 3.15; area under dose-response curve [6]: 3.59; area under dose-response curve [7]: 3.84; area under dose-response curve [8]: 2.43; area under dose-response curve [9]: 3.57; surviving fraction ([10]; 0.5 nM): 0.969 ± 0.016; surviving fraction ([10]; 1 nM): 0.898 ± 0.054; surviving fraction ([10]; 5 nM): 0.881 ± 0.084; surviving fraction ([10]; 10 nM): 0.913 ± 0.083; surviving fraction ([10]; 50 nM): 1.18 ± 0.2; surviving fraction ([10]; 100 nM): 1.18 ± 0.12; surviving fraction ([10]; 500 nM): 0.984 ± 0.095; surviving fraction ([10]; 1000 nM): 0.978 ± 0.085

What does the source list for HOSMNG BONE?
area under dose-response curve [1]: 3.13; area under dose-response curve [2]: 3.45; area under dose-response curve [3]: 1.82; area under dose-response curve [4]: 1.85; area under dose-response curve [5]: 3.65; area under dose-response curve [6]: 3.18; area under dose-response curve [7]: 3.41; area under dose-response curve [8]: 1.76; area under dose-response curve [9]: 2.83; surviving fraction ([10]; 0.5 nM): 0.941 ± 0.06; surviving fraction ([10]; 1 nM): 0.968 ± 0.093; surviving fraction ([10]; 5 nM): 0.923 ± 0.047; surviving fraction ([10]; 10 nM): 0.879 ± 0.11; surviving fraction ([10]; 50 nM): 1.01 ± 0.059; surviving fraction ([10]; 100 nM): 1.08 ± 0.098; surviving fraction ([10]; 500 nM): 1.05 ± 0.13; surviving fraction ([10]; 1000 nM): 1.02 ± 0.072

Which “area under dose-response curve” value [1] does the source give for OS25HAL BONE here?
The value was 2.57.

And the “area under dose-response curve” value [2]?
Its value is 3.55.

What about the “area under dose-response curve” value [3] of the same test system?
The value was 0.945.

And the “area under dose-response curve” value [4]?
The value was 1.01.

What about the “area under dose-response curve” value [5] of the same test system?
Its value is 3.56.

And the “area under dose-response curve” value [6]?
Its value is 3.54.

And the “area under dose-response curve” value [7]?
The value was 3.42.

What about the “area under dose-response curve” value [8] of the same test system?
Its value is 0.935.

And the “area under dose-response curve” value [9]?
Its value is 2.55.

What about the surviving fraction ([10]; 0.5 nM) of the same test system?
Its surviving fraction is 1.03 ± 0.017.

And the surviving fraction ([10]; 1 nM)?
Its surviving fraction is 1.02 ± 0.033.

What about the surviving fraction ([10]; 5 nM) of the same test system?
The surviving fraction was 1.06 ± 0.021.

And the surviving fraction ([10]; 10 nM)?
Its surviving fraction is 1.07 ± 0.022.

What about the surviving fraction ([10]; 50 nM) of the same test system?
Its surviving fraction is 1.06 ± 0.044.

What about the surviving fraction ([10]; 100 nM) of the same test system?
The surviving fraction was 1.1 ± 0.035.

And the surviving fraction ([10]; 500 nM)?
The surviving fraction was 1.15 ± 0.08.

And the surviving fraction ([10]; 1000 nM)?
Its surviving fraction is 1.08 ± 0.051.
